Source: ChEMBL document CHEMBL1201862, “PubChem BioAssay data set” (2004)
Active and inactive are the calls of the source.

How the values were obtained:
Aspartyl aminopeptidase [1] = biological target: T1, Aspartyl aminopeptidase (Plasmodium falciparum 3D7, UniProt Q8I2J3)
T1 sequence (Q8I2J3 whole entry): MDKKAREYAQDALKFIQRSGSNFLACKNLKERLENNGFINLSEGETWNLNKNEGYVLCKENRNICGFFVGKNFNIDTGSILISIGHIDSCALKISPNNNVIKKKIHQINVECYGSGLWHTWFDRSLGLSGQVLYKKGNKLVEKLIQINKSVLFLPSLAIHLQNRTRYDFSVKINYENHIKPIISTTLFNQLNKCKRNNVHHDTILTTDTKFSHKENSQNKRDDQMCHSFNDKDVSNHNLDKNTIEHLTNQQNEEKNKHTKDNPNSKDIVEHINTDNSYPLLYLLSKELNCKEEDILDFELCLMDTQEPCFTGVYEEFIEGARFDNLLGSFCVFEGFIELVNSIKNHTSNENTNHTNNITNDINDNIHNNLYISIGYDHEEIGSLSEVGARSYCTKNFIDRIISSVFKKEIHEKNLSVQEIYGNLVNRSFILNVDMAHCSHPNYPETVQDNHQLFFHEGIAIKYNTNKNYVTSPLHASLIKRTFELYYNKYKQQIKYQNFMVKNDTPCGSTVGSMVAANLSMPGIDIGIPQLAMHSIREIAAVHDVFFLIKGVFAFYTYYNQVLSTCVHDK

Procathepsin L [2] = biological target: T2, Procathepsin L (Homo sapiens, UniProt P07711)
Leucine aminopeptidase = biological target: T3, Leucine aminopeptidase (Plasmodium falciparum 3D7, UniProt Q8IL11); assay: P. falciparum M17LAP inhibitors, primary screen, biochemical, fluorogenic H-Leu-NHMec substrate, 1536-well (AID 1619); type: functional
T3 sequence (Q8IL11 whole entry): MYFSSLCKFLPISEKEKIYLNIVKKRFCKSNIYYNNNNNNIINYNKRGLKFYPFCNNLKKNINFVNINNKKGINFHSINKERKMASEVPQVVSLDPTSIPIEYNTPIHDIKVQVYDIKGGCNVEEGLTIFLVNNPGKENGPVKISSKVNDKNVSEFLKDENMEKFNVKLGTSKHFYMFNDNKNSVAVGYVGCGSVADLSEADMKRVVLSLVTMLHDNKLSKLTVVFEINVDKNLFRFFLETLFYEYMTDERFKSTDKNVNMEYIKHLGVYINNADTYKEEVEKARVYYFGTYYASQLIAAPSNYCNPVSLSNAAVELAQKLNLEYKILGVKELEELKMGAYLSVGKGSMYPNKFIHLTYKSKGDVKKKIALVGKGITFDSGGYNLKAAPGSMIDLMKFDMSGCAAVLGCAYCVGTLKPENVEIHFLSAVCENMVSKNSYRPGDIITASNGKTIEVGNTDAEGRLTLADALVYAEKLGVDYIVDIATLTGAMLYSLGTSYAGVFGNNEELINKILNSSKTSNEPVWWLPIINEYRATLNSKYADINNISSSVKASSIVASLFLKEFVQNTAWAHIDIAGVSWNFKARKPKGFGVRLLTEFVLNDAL

Aspartyl aminopeptidase [3] = biological target: T1, Aspartyl aminopeptidase; assay: Counterscreen for inhibitors of M1 and M17 aminopeptidases: QFRET-based biochemical high throughput dose response assay for inhibitors of the Plasmodium falciparum M18 Aspartyl Aminopeptidase (PFM18AAP). [Related PubChem assays: 1619 (Screening assay (M17LAP inhibitors).), 1445 (Screening assay (M1AAP inhibitors).)]
Procathepsin L [4] = biological target: T2, Procathepsin L; assay: CTSL1 protease inhibition – biochemical, QFRET, 1536-well, counter-screen for M1/M17 aminopeptidase inhibitor project, dose response (AID 2214)
Estrogen receptor = biological target: T4, Estrogen receptor (Homo sapiens, UniProt P03372);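 further: potency for inhibiting coactivator peptide recruitment to the receptor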
T4 sequence (P03372 whole entry): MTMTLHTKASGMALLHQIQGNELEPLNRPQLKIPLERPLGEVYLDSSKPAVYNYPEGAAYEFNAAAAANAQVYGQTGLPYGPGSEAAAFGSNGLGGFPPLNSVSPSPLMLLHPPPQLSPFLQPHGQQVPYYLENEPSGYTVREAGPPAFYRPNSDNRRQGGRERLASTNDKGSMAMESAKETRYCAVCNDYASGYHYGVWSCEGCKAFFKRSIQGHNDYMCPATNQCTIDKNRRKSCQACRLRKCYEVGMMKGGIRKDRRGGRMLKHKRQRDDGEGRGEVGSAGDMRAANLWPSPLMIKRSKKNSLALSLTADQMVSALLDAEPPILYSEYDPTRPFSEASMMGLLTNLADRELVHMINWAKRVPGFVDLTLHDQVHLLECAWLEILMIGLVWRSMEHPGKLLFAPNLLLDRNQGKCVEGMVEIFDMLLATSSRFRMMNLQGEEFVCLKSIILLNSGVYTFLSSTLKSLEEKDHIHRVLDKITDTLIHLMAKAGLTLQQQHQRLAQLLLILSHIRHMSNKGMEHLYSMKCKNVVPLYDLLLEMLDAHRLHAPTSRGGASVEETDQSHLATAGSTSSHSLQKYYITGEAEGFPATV

[5] = blockers of HIV-1 envelope-mediated cell-cell fusion – cherry-pick, dose response (AID 652057); type: functional, cell-based
[6] = blockers of HIV-1 ZM109 envelope-driven cell-cell fusion – HeLa effector, CEM target cells, luciferase, cherry-pick, dose response (AID 652058); type: functional, cell-based;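 further: luciferase signal from HIV-1 Env mediated cell-cell fusion of effector and target cells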
[7] = HIV-1 AD8 envelope cell-cell fusion blockers – cherry-pick, dose response (AID 652062); type: functional, cell-based;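 further: luciferase signal from cell-cell fusion driven by HIV-1 clade B AD8 Env; potency is for inhibitors of fusion seen as a drop in luminescence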
[8] = M. tuberculosis H37Rv growth inhibitors, H37Rv strain (AID 1626); type: functional
[9] = biological target: Eukaryotic translation initiation factor 4E (Mus musculus, UniProt P63073); assay: blockers of eIF4G binding by eIF4E – biochemical, TR-FRET, dose response (AID 855); type: functional;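 further: potency for disrupting eIF4E binding to eIF4GI seen as loss of FRET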
Large T antigen = Large T antigen (Simian virus 40, UniProt P03070); type: functional, Betapolyomavirus macacae;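 further: Confirmatory-stage PubChem screen for compounds that inhibit SV40 T antigen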
[10] = HPDE-C7 pancreatic duct cell viability loss – fluorescence, HTS (AID 430); type: functional, cell-based; settings: Homo sapiens
[11] = viability loss of HPDE-C7K cells – cell-based, fluorescence, HTS, primary screen (AID 431); type: functional; settings: Homo sapiens
[12] = luciferase reporter signal suppression in cells – H4 neuroglioma cells, luminescence, dose response (AID 1990); type: functional, cell-based
[13] = Luminescence Cell-Based Dose Response HTS to Identify Inhibitors of 5'UTR Stem-Loop Driven Prion Protein mRNA Translation in H4 Neuroglioblastoma Cells. [Related pubchem assays: 1827 (Project Summary), 1813 (Primary HTS)]; type: functional
[14] = alpha-synuclein stem-loop luciferase translation blockers – H4 neuroglioma cells, luminescence, confirmation (AID 1988); type: functional, cell-based
[15] = viability of PTEN-deleted HCT116 cells – cell-based, HCT116 PTEN knockout, dose response (AID 1047); type: functional;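 further: HCT116 colon tumor cells with PTEN knocked out; cells exposed to compound for 60 hours before readout; potency for loss of cell viability measured by luminescence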
[16] = viability of HCT116 lacking mutant beta-catenin – cell-based, human colon tumor, dose response (AID 1045); type: functional;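 further: HCT116 colon tumor cells with beta catenin knocked out; cells exposed to compound for 60 hours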
[17] = biological target: T5, Ubiquitin-conjugating enzyme E2 N (Homo sapiens, UniProt P61088); type: functional;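 further: Dose-response confirmation in a TR-FRET assay detecting UBC13-driven polyubiquitin chain formation, inhibition measured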
T5 sequence (P61088 whole entry): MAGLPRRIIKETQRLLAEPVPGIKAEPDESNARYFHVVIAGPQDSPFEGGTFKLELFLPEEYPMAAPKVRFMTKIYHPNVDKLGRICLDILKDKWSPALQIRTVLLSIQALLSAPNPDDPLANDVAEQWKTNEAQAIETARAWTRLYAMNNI

Cytochrome P450 2C19 = Cytochrome P450 2C19 (Homo sapiens, UniProt P33261); assay: Cytochrome panel assay with activity outcomes. Panel member name: p450-cyp2c19 Compounds with AC50 equal or less than 10 uM are considered active; type: functional; settings: read-out: AC50
[18] = reduction of Shn3 3'UTR-driven luciferase in osteoblasts – cell-based, Clone20 osteoblasts, firefly luciferase, cherry-picked, dose response (AID 624132); type: functional;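 further: firefly luciferase luminescence from reporter carrying the Shn3 3'UTR in osteoblasts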
[19] = loss of viability in HepG2 cells – cell-based, CellTiter-Glo, cherry-picked, cytotoxicity control for Shn3 inhibitor project, dose response (AID 624134); type: functional
[20] = non-specific 3'UTR reporter inhibition in Clone20-Shn3RL – cell-based, Renilla luciferase, cherry-picked, counter-screen for Shn3 inhibitor project, dose response (AID 624133); type: functional
Cytochrome P450 2D6 = Cytochrome P450 2D6 (Homo sapiens, UniProt P10635);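 further: CYP2D6 member of a cytochrome P450 panel assay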
Cytochrome P450 3A4 = Cytochrome P450 3A4 (Homo sapiens, UniProt P08684);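 further: CYP3A4 tested as one member of a cytochrome P450 panel screen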
Cytochrome P450 2C9 = Cytochrome P450 2C9 (Homo sapiens, UniProt P11712)
Cytochrome P450 2C9, sequence (P11712 whole entry): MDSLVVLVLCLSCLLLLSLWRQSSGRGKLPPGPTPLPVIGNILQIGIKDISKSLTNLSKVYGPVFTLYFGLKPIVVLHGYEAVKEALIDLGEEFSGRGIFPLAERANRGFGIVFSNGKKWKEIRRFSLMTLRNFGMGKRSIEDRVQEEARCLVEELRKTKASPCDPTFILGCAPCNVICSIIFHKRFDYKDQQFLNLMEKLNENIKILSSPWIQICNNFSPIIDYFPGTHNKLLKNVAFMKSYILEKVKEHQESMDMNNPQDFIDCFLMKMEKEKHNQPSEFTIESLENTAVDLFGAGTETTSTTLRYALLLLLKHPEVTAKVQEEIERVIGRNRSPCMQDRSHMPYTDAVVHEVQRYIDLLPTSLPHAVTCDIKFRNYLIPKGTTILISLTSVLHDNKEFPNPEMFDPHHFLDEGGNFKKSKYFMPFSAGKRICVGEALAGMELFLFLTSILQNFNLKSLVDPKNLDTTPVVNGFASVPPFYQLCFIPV

T2 sequence (P07711 whole entry): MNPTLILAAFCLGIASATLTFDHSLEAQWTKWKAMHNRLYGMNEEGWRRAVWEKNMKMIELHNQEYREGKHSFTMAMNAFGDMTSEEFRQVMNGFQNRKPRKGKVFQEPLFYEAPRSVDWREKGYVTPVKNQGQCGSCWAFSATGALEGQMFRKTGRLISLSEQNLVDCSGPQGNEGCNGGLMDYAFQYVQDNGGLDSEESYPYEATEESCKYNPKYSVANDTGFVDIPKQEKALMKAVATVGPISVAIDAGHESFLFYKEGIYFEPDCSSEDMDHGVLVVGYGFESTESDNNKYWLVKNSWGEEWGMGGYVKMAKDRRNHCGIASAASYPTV
Cytochrome P450 2C19, sequence (P33261 whole entry): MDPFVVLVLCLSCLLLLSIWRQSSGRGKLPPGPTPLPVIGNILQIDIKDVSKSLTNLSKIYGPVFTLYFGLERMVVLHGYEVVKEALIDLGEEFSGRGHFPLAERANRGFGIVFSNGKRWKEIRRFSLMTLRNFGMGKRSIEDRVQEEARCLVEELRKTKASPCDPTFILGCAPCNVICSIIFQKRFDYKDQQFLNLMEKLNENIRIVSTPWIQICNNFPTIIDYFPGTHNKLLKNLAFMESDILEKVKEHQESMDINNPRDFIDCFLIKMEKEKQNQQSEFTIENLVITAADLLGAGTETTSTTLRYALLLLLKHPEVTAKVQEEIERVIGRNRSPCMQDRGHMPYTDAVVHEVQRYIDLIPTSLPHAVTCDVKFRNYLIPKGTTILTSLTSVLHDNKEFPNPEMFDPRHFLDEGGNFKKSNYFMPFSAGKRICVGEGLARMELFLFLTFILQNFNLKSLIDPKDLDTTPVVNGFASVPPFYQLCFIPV
Eukaryotic translation initiation factor 4E, sequence (P63073 whole entry): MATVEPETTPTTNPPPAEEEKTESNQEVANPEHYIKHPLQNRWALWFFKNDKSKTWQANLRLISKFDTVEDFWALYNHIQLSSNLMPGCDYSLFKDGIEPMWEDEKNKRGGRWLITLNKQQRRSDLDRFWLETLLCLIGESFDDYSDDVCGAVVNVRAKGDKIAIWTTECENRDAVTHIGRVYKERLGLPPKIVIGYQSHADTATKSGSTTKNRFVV
Cytochrome P450 2D6, sequence (P10635 whole entry): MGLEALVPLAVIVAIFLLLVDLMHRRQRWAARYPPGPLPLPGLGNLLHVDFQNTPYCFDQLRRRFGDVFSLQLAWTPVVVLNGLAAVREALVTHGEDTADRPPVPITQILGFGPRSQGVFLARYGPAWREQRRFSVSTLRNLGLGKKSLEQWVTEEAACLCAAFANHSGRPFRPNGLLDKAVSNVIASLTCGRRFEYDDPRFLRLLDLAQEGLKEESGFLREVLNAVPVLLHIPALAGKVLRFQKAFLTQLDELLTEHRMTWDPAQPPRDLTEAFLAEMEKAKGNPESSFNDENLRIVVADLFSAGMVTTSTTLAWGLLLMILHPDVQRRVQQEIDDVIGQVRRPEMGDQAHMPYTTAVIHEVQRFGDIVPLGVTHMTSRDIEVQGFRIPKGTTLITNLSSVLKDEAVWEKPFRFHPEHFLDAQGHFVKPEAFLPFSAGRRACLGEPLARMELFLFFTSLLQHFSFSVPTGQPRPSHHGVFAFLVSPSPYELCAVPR
Large T antigen, sequence (P03070 whole entry): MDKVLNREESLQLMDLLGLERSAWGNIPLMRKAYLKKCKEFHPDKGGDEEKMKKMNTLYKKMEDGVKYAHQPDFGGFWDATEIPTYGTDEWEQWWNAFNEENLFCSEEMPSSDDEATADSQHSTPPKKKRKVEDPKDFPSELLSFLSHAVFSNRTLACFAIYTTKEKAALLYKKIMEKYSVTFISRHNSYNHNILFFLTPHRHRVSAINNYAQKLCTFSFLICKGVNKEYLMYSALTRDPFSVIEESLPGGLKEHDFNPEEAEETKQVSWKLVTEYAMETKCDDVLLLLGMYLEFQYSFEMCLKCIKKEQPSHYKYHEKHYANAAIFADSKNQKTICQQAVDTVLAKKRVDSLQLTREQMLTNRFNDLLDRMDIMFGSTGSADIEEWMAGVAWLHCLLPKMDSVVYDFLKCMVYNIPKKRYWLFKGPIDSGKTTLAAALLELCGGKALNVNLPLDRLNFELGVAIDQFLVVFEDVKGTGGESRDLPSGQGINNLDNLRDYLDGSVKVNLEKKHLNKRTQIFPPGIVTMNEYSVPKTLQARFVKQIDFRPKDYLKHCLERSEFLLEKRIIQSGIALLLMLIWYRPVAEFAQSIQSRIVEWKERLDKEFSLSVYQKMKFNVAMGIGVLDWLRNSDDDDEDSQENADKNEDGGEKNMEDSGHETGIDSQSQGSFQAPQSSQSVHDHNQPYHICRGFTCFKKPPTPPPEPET
Cytochrome P450 3A4, sequence (P08684 whole entry): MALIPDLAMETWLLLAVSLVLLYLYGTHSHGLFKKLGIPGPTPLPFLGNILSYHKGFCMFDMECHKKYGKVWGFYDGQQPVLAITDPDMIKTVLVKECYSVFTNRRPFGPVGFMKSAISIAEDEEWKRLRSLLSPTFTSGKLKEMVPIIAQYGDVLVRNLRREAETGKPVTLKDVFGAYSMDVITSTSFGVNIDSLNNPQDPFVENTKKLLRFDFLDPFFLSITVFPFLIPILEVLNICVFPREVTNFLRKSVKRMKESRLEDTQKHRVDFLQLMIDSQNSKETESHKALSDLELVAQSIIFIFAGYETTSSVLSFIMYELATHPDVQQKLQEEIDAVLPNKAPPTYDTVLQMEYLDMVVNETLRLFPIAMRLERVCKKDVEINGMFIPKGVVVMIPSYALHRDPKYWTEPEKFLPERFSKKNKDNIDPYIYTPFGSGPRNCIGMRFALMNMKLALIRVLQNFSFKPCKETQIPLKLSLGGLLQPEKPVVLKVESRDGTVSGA

O=C(CSc1nnc(-c2ccccc2)o1)Nn1cnnc1
IC50 (Aspartyl aminopeptidase [1]): 2.09 µM (active)
IC50 (Procathepsin L [2]): > 59.6 µM (not active)

CCc1cc2cc(OC)ccc2nc1SCC(=O)Nc1cc(OC)c(OC)cc1C(=O)O
IC50 (Leucine aminopeptidase): < 1 µM (active)
IC50 (Aspartyl aminopeptidase [3]): > 73.5 µM (not active)
IC50 (Procathepsin L [4]): > 59.6 µM (not active)

Cc1cc(C(=O)COC(=O)c2ccc[nH]c2=O)c(C)n1-c1ccc(Br)cc1
IC50 (Leucine aminopeptidase): 2.74 µM (active)
IC50 (Aspartyl aminopeptidase [3]): > 73.5 µM (not active)
IC50 (Procathepsin L [4]): > 59.6 µM (not active)

O=C(Nc1ccccc1Cl)Nn1cnnc1
IC50 (Aspartyl aminopeptidase [1]): 1.47 µM (active)
IC50 (Procathepsin L [2]): > 59.6 µM (not active)

O=S(=O)(NCCc1csc(-c2cccnc2)n1)c1ccc(Cl)s1
IC50 (Estrogen receptor): 19.2 µM (active)
AC50 [5]: 42 µM (active)
AC50 [6]: 7.17 µM (active)
AC50 [7]: 12 µM (active)

Cc1ccccc1Nc1nnc(SCC(=O)NC(=O)NCc2ccco2)s1
IC50 (Leucine aminopeptidase): 25.1 µM (active)
IC50 (Estrogen receptor): 17.3 µM (active)

CC1CCc2sc(NC(=O)C3CC(Cl)=CCC3C(=O)O)c(C#N)c2C1 (stereo not given)
IC50 (Leucine aminopeptidase): < 1 µM (active)
IC50 (Aspartyl aminopeptidase [3]): > 73.5 µM (not active)
IC50 (Procathepsin L [4]): > 59.6 µM (not active)

CCOC(=O)c1cnn(C(=O)c2ccccc2)c1N
IC50 [8]: > 100 µM (active)
IC50 [9]: > 64 µM (inactive)

COc1ccc(/N=C/c2c[nH]nc2O)cc1
IC50 [8]: > 100 µM (active)
IC50 (Large T antigen): 17.9 µM (active)

CCc1ccc(C(=O)CSC2=C(C#N)C(c3ccco3)C(C(C)=O)=C(C)N2)cc1 (stereo not given)
EC50 [10]: 14.4 µM (active)
EC50 [11]: 15.7 µM (active)

COc1ccc(CCN2CCC(Nc3nc4ccccc4n3Cc3ccc(F)cc3)CC2)cc1 [ASTEMIZOLE]
EC50 [12]: > 60 µM (not active)
EC50 [13]: 9.34 µM (active)
EC50 [14]: 7.94 µM (active)
EC50 [10]: 12.4 µM (active)
EC50 [11]: 13.6 µM (active)
EC50 [15]: 5.87 µM (active)
EC50 [16]: 3.78 µM (active)
IC50 [17]: > 20 µM (inactive)
AC50 (Cytochrome P450 2C19): 7.94 µM (inconclusive)
AC50 [18]: 3.03 µM (active)
AC50 [19]: 12.6 µM (active)
AC50 [20]: 19.7 µM (active)
AC50 (Cytochrome P450 2D6): 7.94 µM (active)
AC50 (Cytochrome P450 3A4): inactive
AC50 (Cytochrome P450 2C9): inactive
